Results reported in US20260115180A1, “TREATMENT OF HYPOTHALAMIC OBESITY” (Saniona A/S, priority 2020, published 2026).

What was measured:
[1] = in vivo; cited from earlier work
[2] = rat model of diet-induced obesity; cited from earlier work
[3] = Open-label extension of the Phase 2 study TM005 (additional 24 weeks, 48 weeks in total); assay type: in vivo, human
Description: All subjects: co-administration of 0.5 mg tesofensine/50 mg metoprolol ER daily for 24 weeks. One tablet for each product.
TM005 was a 24-week phase 2, double-blind, randomized, placebo-controlled, single-centre, safety and efficacy study followed by a 24-week open-label extension treatment period designed to evaluate overall safety and tolerability of Tesomet (co-administration of 0.5 mg tesofensine and 50 mg metoprolol) in patients with hypothalamic obesity (HO).
The primary endpoint of the study was overall safety and tolerability measured by all safety data collected during the study including recorded adverse events, laboratory data, blood pressure, and heart rate. The secondary efficacy endpoints included bodyweight, waist circumference, glycemic control and other measures. In the double-blind (DB) period of the study, patients received either Tesomet or matching placebo (2:1 randomization) for 24 weeks.
A total of 21 patients (13 Tesomet, 8 placebo) were randomized into the double blind (DB) period. All patients who completed the DB period of the study were provided the opportunity to receive Tesomet in an open-label extension (OLE) period of the study for an additional 24 weeks. All 18 patients who completed the DB period chose to participate in the OLE period and all of these patients completed the OLE period. […]

[4] = Phase 2 double-blind, randomized, placebo-controlled trial of Tesomet in hypothalamic obesity, Part 1 (24 weeks); assay type: in vivo, human; conditions: after 24 weeks of treatment (FIG. 3a)
Source text: The overall safety and tolerability of co-administration of tesofensine and metoprolol (Tesomet) in subjects with hypothalamic injury-induced obesity (HIO) was studied in a phase 2, double-blind, randomized, placebo-controlled, single-center safety and efficacy study followed by with an open-label extension, in total 48 weeks: • Part 1:24 Weeks double blinded treatment followed by • Part 2:24 weeks open lable extension.
The studied population were subjects suffering from obesity developed in relation to damage to the hypothalamus (HO), whether it is from an injuring trauma, bleeding, infaction, tumor, surgery or irradiation. […]
This randomized, double-blind, placebo-controlled Phase 2 trial evaluated Tesomet (tesofensine 0.5 mg+metoprolol 50 mg) administered daily in patients with HO, conducted at Rigshospitalet in Copenhagen, Denmark.
The primary endpoint of the study was overall safety and tolerability measured by all safety data collected during the study including recorded adverse events, laboratory data, blood pressure, and heart rate. […]
Continuous efficacy secondary endpoints were compared between treatment arms by means using Analysis of Co-variance (ANCOVA) including treatment as fixed factor and baseline value as covariate. Estimates and 95% confidence intervals of treatment differences were calculated

[5] = cited from earlier work

Compound | Half-life of beta blockers [1] [h] | Body weight in DIO rats [2] | Share of patients with at least 10% weight loss ([3]; FIG. 3b) | Body weight after 48 weeks of Tesomet ([3]; baseline to Week 48, 24 weeks double-blind + 24 weeks open-label (FIG. 5)) | Share of patients with at least 5% weight loss [4] | Nocturnal energy expenditure ([5]; human subjects) | Weight loss in obese patients, corrected for placebo and diet effects ([5]; long-term treatment)
COc1ccccc1OCCNCC(O)COc1cccc2[nH]c3ccccc3c12 (racemic) [carvedilol, (±)-[3-(9H-carbazol-4-yloxy)-2-hydroxypropyl][2-(2-methoxyphenoxy)ethyl]amine] | 7 to 10 | – | – | – | – | – | –
COCCc1ccc(OCC(O)CNC(C)C)cc1 (centres unmarked) [metoprolol, 1-(Isopropylamino)-3-[4-(2-methoxyethyl)-phenoxy]-propan-2-ol] | 3 to 4 | – | – | – | – | – | –
CCOC[C@@H]1[C@@H](c2ccc(Cl)c(Cl)c2)C[C@@H]2CC[C@H]1N2C [Tesofensine, (1R,2R,3S,5S)-3-(3,4-dichlorophenyl)-2-(ethoxymethyl)-8-methyl-8-azabicyclo[3.2.1]octane] | – | robust and sustained weight loss | 33-41% | maintained | approximately ⅔ | increase nocturnal energy expenditure | about 10%
